{"source": "patent US12263156B2", "about": "“Use of small molecule inhibitors of the BfrB:Bfd interaction in biofilms” (priority 2020, dated 2025)", "key": {"[1]": {"test_system": "EYFP-expressing P. aeruginosa PAO1 pellicle biofilms", "assay": "Determination of viable cells (CFU/mL) in pellicle biofilms", "conditions": "for % survival relative to cells in the pre-treated biofilm / viable cell count as % of the cells in the untreated pellicle / % survival, combination treatment: 24 h; for viable cell count as % of the cells in the untreated pellicle: KM-5-25 40 μM, KM-5-66 20 μM; for relative compound activity (rank order): pellicles treated 24 h with 50 μM of each analog", "protocol": "Pellicle biofilms of EYFP-expressing P. aeruginosa PAO1 or clinical isolates were grown in PI media supplemented with 20 μM Fe. Starter cultures were diluted to OD600=0.001 in 4 mL media, placed in 35×10 mm petri dishes and incubated statically at 30° C. for 48 hours. The pellicles were transferred onto circular (1.5 cm diameter) glass coverslips by gently allowing the surface of a coverslip to contact a pellicle. The pellicle-adhered coverslip was washed in PBS and then deposited on top of 1.5 mL of AB challenge media contained in a well of a 12-well microplate, with the pellicle exposed to the media. […] The coverslip-adhered pellicles were exposed to challenge media at 30° C. for 24 hours, changing the challenge media every 12 hours by transferring the pellicle-adhered coverslip to a new plate containing pre-warmed challenge media.\nPellicle biofilms were grown as described above. Planktonic and loosely attached cells were washed (3 times) by immersing the coverslip-adhered pellicles (biofilm facing up) into a well of a 12-well plate containing 3 mL of PBS, and incubating (5 min) with gentle rocking. To remove the pellicle from the coverslip, break the extracellular matrix and release cells from the biofilm, the coverslip-adhered pellicle was placed in a 50 mL conical tube containing a 2 mL suspension of zirconia beads (0.1 mm diameter, BioSpec Products), 10 mL PBS, 0.2 μg/mL alginate lyase and 0.2 μg/mL DNAse. The resultant mixture was incubated at room temperature for 3 min, followed by vigorous vortexing for 4 min. After sedimentation of the zirconia beads, a 100 μL aliquot was used for serial dilution and plating on PIA plates for subsequent enumeration of viable cells (CFU/mL).\nTo assess the efficacy of antibiotics and compounds with an approach complementary to imaging with CLSM, dispersing biofilm cells for subsequent enumeration of viable cells (CFU/mL) was resorted to. […] The biofilms were then harvested, and the cells dispersed into sterile PBS by vortexing in the presence of zirconia beads, prior to plating the cell suspensions for subsequent enumeration of CFU/mL. […] A characteristic of cells in the VBNC state is their inability to develop into colonies on routine culture media, even though the cells remain viable for long periods of time.^58-59 Evidence that bacterial cells can enter the VBNC has been obtained by several distinct methods,^59 one of which is the utilization of bacteria engineered to constitutively express bioluminescent proteins, and using the bioluminescence as a reporter of metabolic activity."}, "[2]": {"test_system": "iron stored in BfrB in P. aeruginosa PAO1 pellicle cells", "assay": "Imaging of iron stored in BfrB in biofilm-embedded cells (native PAGE, Ferene S, densitometry)", "type": "cell-based, Pseudomonas aeruginosa", "conditions": "24 h; KM-5-25 40 μM, KM-5-66 20 μM", "text": "Recombinant BfrB (BfrBrec) was used as a standard for the electrophoretic mobility of BfrB. The lane corresponding to untreated control was loaded with 0.5× the volume of the lanes loaded with lysates from treated pellicles to account for the ˜2-fold larger number of viable cells in the untreated pellicles. Lanes loaded with treated pellicle lysates show greater accumulation of iron in BfrB relative to untreated cells. […] (A), (C) and (D) show the average of results from 3 biological replicates, p<0.001 is denoted by *** relative to untreated.\nPellicle biofilms were grown for 48 hours as described above. The pellicles were transferred onto square (2 cm×2 cm) glass coverslips by gently contacting the pellicle with the coverslip. […] Levels of total intracellular iron were determined as reported previously:^23, 86 the cell pellets were treated with 500 μL of freshly prepared digestion reagent (0.6 N HCl, 2.25% (w/v) KMnO4 in water), thoroughly mixed by vortexing, and then incubated at 65° C. for 3.5 hours. […] The iron concentration was measured from the absorbance of the Fe^2+-Ferene S complex (ε593=34.5 mM^−1 cm^−1),^87 normalized by the viable cell counts and reported as Fe atoms per cell. […]"}, "[3]": {"conditions": "0.6× the IC50 (KM-5-25 40 μM; KM-5-66 30 μM)"}, "[4]": {"conditions": "1.2× the IC50 (KM-5-25 80 μM; KM-5-66 50 μM)"}, "[5]": {"conditions": "analog at 1.2× the IC50 combined with colistin at 25× the MIC"}, "[6]": {"conditions": "analog at 1.2× the IC50 combined with colistin at 25× the MIC (20 μM)"}, "[7]": {"conditions": "analog at 1.2× the IC50 combined with colistin at 50× the MIC"}, "[8]": {"conditions": "analog at 1.2× the IC50 combined with colistin at 50× the MIC (40 μM)"}, "[9]": {"conditions": "analog at 1.2× the IC50 combined with tobramycin at 25× the MIC"}, "[10]": {"conditions": "analog at 1.2× the IC50 combined with tobramycin at 50× the MIC"}}, "data": [{"smiles": "O=C1NC(=O)c2c(NCc3cc(Cl)ccc3O)cccc21", "note": "[KM-5-25]", "values": [{"measurement": "% survival relative to cells in the pre-treated biofilm", "setting": "[1]; [3]", "result": "~38", "unit": "%"}, {"measurement": "% survival relative to cells in the pre-treated biofilm", "setting": "[1]; [4]", "result": "~25", "unit": "%"}, {"measurement": "viable cell count as % of the cells in the untreated pellicle", "setting": "[1]", "result": 42, "unit": "%"}, {"measurement": "log reduction of viable cells relative to colistin alone", "setting": "[1]; [5]", "result": "~1", "unit": "log"}, {"measurement": "% survival, combination treatment", "setting": "[1]; [6]", "result": "~1", "unit": "%"}, {"measurement": "log reduction of viable cells relative to colistin alone", "setting": "[1]; [7]", "result": "~0.7", "unit": "log"}, {"measurement": "% survival, combination treatment", "setting": "[1]; [8]", "result": "~0.5", "unit": "%"}, {"measurement": "log reduction of viable cells relative to tobramycin alone", "setting": "[1]; [9]", "result": "approximately 2.5 log"}, {"measurement": "% survival, combination treatment", "setting": "[1]; [9]", "result": "~0.5", "unit": "%"}, {"measurement": "log reduction of viable cells relative to tobramycin alone", "setting": "[1]; [10]", "result": "~4.7", "unit": "log"}, {"measurement": "% survival, combination treatment", "setting": "[1]; [10]", "result": "~0.003", "unit": "%"}, {"measurement": "relative compound activity (rank order)", "setting": "[1]", "result": "KM-5-66>KM-5-25>16>11"}, {"measurement": "iron in BfrB relative to untreated pellicles (Ferene S band peak areas)", "setting": "[2]", "result": "~3", "unit": "fold"}]}, {"smiles": "O=C1NC(=O)c2c(NCCCc3cc(O)cc(Cl)c3)cccc21", "note": "[KM-5-66]", "values": [{"measurement": "% survival relative to cells in the pre-treated biofilm", "setting": "[1]; 0.3× the IC50 (KM-5-66 15 μM)", "result": "approximately 57%"}, {"measurement": "% survival relative to cells in the pre-treated biofilm", "setting": "[1]; [3]", "result": "~21", "unit": "%"}, {"measurement": "% survival relative to cells in the pre-treated biofilm", "setting": "[1]; [4]", "result": "~15", "unit": "%"}, {"measurement": "viable cell count as % of the cells in the untreated pellicle", "setting": "[1]", "result": 37, "unit": "%"}, {"measurement": "log reduction of viable cells relative to colistin alone", "setting": "[1]; [5]", "result": "approximately 1.7 log"}, {"measurement": "% survival, combination treatment", "setting": "[1]; [6]", "result": "~0.3", "unit": "%"}, {"measurement": "log reduction of viable cells relative to colistin alone", "setting": "[1]; [7]", "result": "~1.9", "unit": "log"}, {"measurement": "% survival, combination treatment", "setting": "[1]; [8]", "result": "~0.02", "unit": "%"}, {"measurement": "log reduction of viable cells relative to tobramycin alone", "setting": "[1]; [9]", "result": "approximately 1.5 log"}, {"measurement": "% survival, combination treatment", "setting": "[1]; [9]", "result": 5, "unit": "%"}, {"measurement": "log reduction of viable cells relative to tobramycin alone", "setting": "[1]; [10]", "result": "~2", "unit": "log"}, {"measurement": "% survival, combination treatment", "setting": "[1]; [10]", "result": 1, "unit": "%"}, {"measurement": "relative compound activity (rank order)", "setting": "[1]", "result": "KM-5-66>KM-5-25>16>11"}, {"measurement": "iron in BfrB relative to untreated pellicles (Ferene S band peak areas)", "setting": "[2]", "result": "~3", "unit": "fold"}]}]}
